Results reported in US6624142B2, “Trimethyl lock based tetrapartate prodrugs” (Enzon, Inc., priority 1997, dated 2003).

System: s.c. Human Mammary Tumor (MX-1)
Assay: Efficacy against s.c. MX-1 human mammary tumor in nude mice
Assay type: in vivo
Details: 30 mg/kg q7d × 3, iv
Description: Following at least one week of acclimation, tumors were established by injecting 1×10^6 (100 μl) harvested MX-1 mammary tumor cells in a single subcutaneous site, on the left axillary flank region of nude mice. The tumor injection site was observed twice weekly and measured once palpable. The tumor volume for each mouse was determined by measuring two dimensions with calipers and calculated using the formula: tumor volume ((length×width^2)/2). When tumors reached the average volume of approximately 65 mm^3, the mice were divided into their experimental groups, which consists of vehicles (20 m M Sodium PO4 in 0.6% NaCl) controls, Leu-Doxorubicin, compound 3 of Example 1a, compound 5 of Example 2a. The mice were sorted to evenly distribute tumor size, grouped into 6 mice/cage, and ear punched for permanent identification. Drugs were dosed intravenously via the tail vein once per week for three weeks (Qd7×3). Mouse weight and tumor sizes were measured at the beginning of study and twice weekly through week 5.
The overall growth of tumors was calculated as the mean tumor volume at one week following the end of the treatment. A percent treatment over control (T/C) value was also calculated when the control group's median tumor size reached approximately 800-1100 mm^3 and again at one week following treatment. The T/C value in percent is a non-quantitative indication of anti-tumor effectiveness.

COc1cccc2c1C(=O)c1c(O)c3c(c(O)c1C2=O)C[C@@](O)(C(=O)CO)C[C@@H]3O[C@H]1C[C@H](NC(=O)[C@@H](N)CC(C)C)[C@H](O)[C@H](C)O1 [Leu-Dox, Leucine-Doxorubicin, reference compound]
Tumor Vol. Mean ± SEM (Day 25-28) (Day 25-28, mean baseline tumor volume 65 mm^3): 860 ± 163 mm^3
T/C (%) 1000 mm^3 (median tumor volume, treatment vs control, when control median reached approximately 1000 mm^3): 56.5%
% Change Mean ± SEM (Day 25-28) (tumor volume change, Day 25-28): 1373 ± 487%
